Assay results from patent publication EP0674651B1, “SUBSTITUTED 6-AZAANDROSTENONES” (priority 1992, dated 1994).

Experiments:
[1] = biological target: T1, human type 1 5α-reductase (Homo sapiens, UniProt P18405); assay: 5α-reductase in vitro inhibitory activity, human type 1
T1 sequence (P18405 1-259): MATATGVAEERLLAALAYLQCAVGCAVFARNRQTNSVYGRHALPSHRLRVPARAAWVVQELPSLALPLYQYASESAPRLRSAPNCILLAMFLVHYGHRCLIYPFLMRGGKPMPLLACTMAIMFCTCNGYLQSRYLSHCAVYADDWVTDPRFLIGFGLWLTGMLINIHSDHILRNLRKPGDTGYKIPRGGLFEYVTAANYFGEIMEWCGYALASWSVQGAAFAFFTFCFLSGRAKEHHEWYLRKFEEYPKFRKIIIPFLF

[2] = biological target: T2, human type 2 5α-reductase (Homo sapiens, UniProt P31213); assay: 5α-reductase in vitro inhibitory activity, human type 2
T2 sequence (P31213 1-254): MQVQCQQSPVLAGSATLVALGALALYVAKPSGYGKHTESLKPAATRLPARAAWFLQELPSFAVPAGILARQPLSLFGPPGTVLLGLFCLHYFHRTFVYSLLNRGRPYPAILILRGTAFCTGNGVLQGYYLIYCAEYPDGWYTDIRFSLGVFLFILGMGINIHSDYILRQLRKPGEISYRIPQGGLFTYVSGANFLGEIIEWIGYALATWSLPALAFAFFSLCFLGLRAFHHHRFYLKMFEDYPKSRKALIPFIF

Structure (SMILES)	IC50 [1]	IC50 [2]
COc1ccccc1Oc1ccc(C(F)(F)F)cc1NC(=O)[C@H]1CC[C@H]2[C@@H]3CNC4=CC(=O)CC[C@]4(C)[C@H]3CC[C@]12C [Compound 80]	0.01 to 0.1 µM	< 0.01 µM
C[C@]12CC[C@H]3[C@@H](CNC4=CC(=O)CC[C@@]43C)[C@@H]1CC[C@@H]2C(=O)Nc1cc(C(F)(F)F)ccc1Oc1ccc(Cl)cc1 [Compound 81, 17β-N-(2-(O-4-Chlorophenyl)-5-trifluoromethyl)phenyl-carbamoyl-6-azaandrost-4-en-3-one]	0.01 to 0.1 µM	< 0.01 µM
CC(C)(C)c1ccc(NC(=O)[C@H]2CC[C@H]3[C@@H]4CNC5=CC(=O)CC[C@]5(C)[C@H]4CC[C@]23C)c([N+](=O)[O-])c1 [Compound 82, 17β-N-(2-Nitro-4-t-butyl)phenyl-carbamoyl-6-azaandrost-4-en-3-one]	< 0.01 µM	< 0.01 µM
CCC(C)(C)c1ccc(Oc2ccccc2)c(NC(=O)[C@H]2CC[C@H]3[C@@H]4CNC5=CC(=O)CC[C@]5(C)[C@H]4CC[C@]23C)c1 [Compound 83, 17β-N-(2-(O-Phenyl)-5-(1,1-dimethyl)propyl)phenyl-carbamoyl-6-azaandrost-4-en-3-one]	0.01 to 0.1 µM	< 0.01 µM
CCc1cc(C#N)ccc1NC(=O)[C@H]1CC[C@H]2[C@@H]3CNC4=CC(=O)CC[C@]4(C)[C@H]3CC[C@]12C [Compound 84, 17β-N-(2-Ethyl-4-cyano)phenyl-carbamoyl-6-azaandrost-4-en-3-one]	0.01 to 0.1 µM	< 0.01 µM
CCS(=O)(=O)c1ccc(C(F)(F)F)cc1NC(=O)[C@H]1CC[C@H]2[C@@H]3CNC4=CC(=O)CC[C@]4(C)[C@H]3CC[C@]12C [Compound 85, 17β-N-(2-Ethylsulfonyl-5-trifluoromethyl)phenyl-carbamoyl-6-azaandrost-4-en-3-one]	< 0.01 µM	< 0.01 µM
CC(C)(C)c1cc(NC(=O)[C@H]2CC[C@H]3[C@@H]4CNC5=CC(=O)CC[C@]5(C)[C@H]4CC[C@]23C)cc(C(C)(C)C)c1 [Compound 86, 17β-N-(3,5-Di-t-butyl)phenyl-carbamoyl-6-azaandrost-4-en-3-one]	< 0.01 µM	< 0.01 µM
CC(C)(C)c1ccc(C(F)(F)F)cc1NC(=O)[C@H]1CC[C@H]2[C@@H]3CNC4=CC(=O)CC[C@]4(C)[C@H]3CC[C@]12C [Compound 87, 17β-N-(2-t-Butyl-5-trifluoromethyl)phenyl-carbamoyl-6-azaandrost-4-en-3-one]	< 0.01 µM	< 0.01 µM
CC(C)(C)c1ccc(-c2ccccc2)cc1NC(=O)[C@H]1CC[C@H]2[C@@H]3CNC4=CC(=O)CC[C@]4(C)[C@H]3CC[C@]12C [Compound 88, 17β-N-(2-t-Butyl-5-phenyl)phenyl-carbamoyl-6-azaandrost-4-en-3-one]	< 0.01 µM	< 0.01 µM
CC1CCC(C(C)C)C(OC(=O)OC[C@H]2CC[C@H]3[C@@H]4CNC5=CC(=O)CC[C@]5(C)[C@H]4CC[C@]23C)C1 (stereo partly drawn) [Compound 89, 17β-Hydroxymethyl-(menthylcarbonate)-6-azaandrost-4-en-3-one]	0.01 to 0.1 µM	< 0.01 µM
C[C@]12CC[C@H]3[C@@H](CNC4=CC(=O)CC[C@@]43C)[C@@H]1CC[C@@H]2COC(=O)Oc1ccccc1 [Compound 90, 17β-Hydroxymethyl-(phenylcarbonate)-6-azaandrost-4-en-3-one]	< 0.01 µM	< 0.01 µM
CC(C)(C)c1ccc(NC(=O)[C@H]2CC[C@H]3[C@@H]4CNC5=CC(=O)CC[C@]5(C)[C@H]4CC[C@]23C)cc1[N+](=O)[O-] [Compound 92, 17β-N-(3-Nitro-4-t-butyl)phenyl-carbamoyl-6-azaandrost-4-en-3-one]	0.01 to 0.1 µM	< 0.01 µM
CC1=C2NC[C@H]3[C@@H]4CC[C@H](C(=O)Nc5c(C(C)C)cccc5C(C)C)[C@@]4(C)CC[C@@H]3[C@@]2(C)C=CC1=O [Compound 94, 17β-N-(2,6-Di-i-propyl)phenyl-carbamoyl-6-azaandrost-4-methyl-1,4-dien-3-one]	0.01 to 0.1 µM	< 0.01 µM
CC(C)NC(=O)N(C(=O)[C@H]1CC[C@H]2[C@@H]3CNC4=CC(=O)CC[C@]4(C)[C@H]3CC[C@]12C)C(C)C [Compound 95, 17β-(N-i-Propyl-N-(N-i-propylcarbamoyl))-carbamoyl-6-azaandrost-4-en-3-one]	> 0.1 µM	0.01 to 0.1 µM
C[C@]12CC[C@H]3[C@@H](CNC4=CC(=O)CC[C@@]43C)[C@@H]1CC[C@@H]2C(=O)N(C(=O)NC1CCCCC1)C1CCCCC1 [Compound 96, 17β-(N-cyclohexyl-N-(N-cyclohexylcarbamoyl))-carbamoyl-6-azaandrost-4-en-3-one]	0.01 to 0.1 µM	< 0.01 µM
CC(=O)NC[C@H]1CC[C@H]2[C@@H]3CNC4=CC(=O)CC[C@]4(C)[C@H]3CC[C@]12C [Compound 97, 17β-Aminomethyl-(acetamide)-6-azaandrost-4-en-3-one]	> 0.1 µM	0.01 to 0.1 µM
C[C@]12CC[C@H]3[C@@H](CNC4=CC(=O)CC[C@@]43C)[C@@H]1CC[C@@H]2CNC(=O)NC12CC3CC(CC(C3)C1)C2 [Compound 98, 17β-Aminomethyl-(1-adamantylurea)-6-azaandrost-4-en-3-one]	< 0.01 µM	< 0.01 µM
CC(C)c1cccc(C(C)C)c1NC(=O)OC[C@H]1CC[C@H]2[C@@H]3CNC4=CC(=O)CC[C@]4(C)[C@H]3CC[C@]12C [Compound 99, 17β-Hydroxymethyl-(2,6-diisopropylphenylcarbamate)-6-azaandrost-4-en-3-one]	< 0.01 µM	< 0.01 µM
CC(C)(C)c1ccc(NC(=O)[C@H]2CC[C@H]3[C@@H]4CNC5=CC(=O)CC[C@]5(C)[C@H]4CC[C@]23C)c(C(F)(F)F)c1 [Compound 100, 17β-N-(4-t-Butyl-2-trifluoromethyl)phenyl-carbamoyl-6-azaandrost-4-en-3-one]	< 0.01 µM	< 0.01 µM
C[C@]12CC[C@H]3[C@@H](CNC4=CC(=O)CC[C@@]43C)[C@@H]1CC[C@@H]2C(=O)NC1(c2ccc(Cl)cc2Cl)CC1 [Compound 101, 17β-N-1-(2,4-Dichlorophenyl)cyclopropyl-carbamoyl-6-azaandrost-4-en-3-one]	< 0.01 µM	< 0.01 µM
C[C@]12CC[C@H]3[C@@H](CNC4=CC(=O)CC[C@@]43C)[C@@H]1CC[C@@H]2C(=O)NC1(c2cccc(C(F)(F)F)c2)CCCC1 [Compound 102, 17β-N-1-(3-Trifluoromethylphenyl)cyclopentyl-carbamoyl-6-azaandrost-4-en-3-one]	< 0.01 µM	< 0.01 µM
CCC(CC)(NC(=O)[C@H]1CC[C@H]2[C@@H]3CNC4=CC(=O)CC[C@]4(C)[C@H]3CC[C@]12C)c1ccccc1 [Compound 103, 17β-N-(1-Ethyl-1-phenyl)propyl-carbamoyl-6-azaandrost-4-en-3-one]	0.01 to 0.1 µM	< 0.01 µM
C[C@]12CC[C@H]3[C@@H](CNC4=CC(=O)CC[C@@]43C)[C@@H]1CC[C@@H]2C(=O)NC1(c2ccc(F)cc2)CCCC1 [Compound 104, 17β-N-1-(4-Fluorophenyl)cyclopentyl-carbamoyl-6-azaandrost-4-en-3-one]	0.01 to 0.1 µM	< 0.01 µM
CCN(CC)C(=O)c1ccc(C(C)(C)C)c(NC(=O)[C@H]2CC[C@H]3[C@@H]4CNC5=CC(=O)CC[C@]5(C)[C@H]4CC[C@]23C)c1 [Compound 105, 17β-N-(2-t-Butyl-5-N,N-diethylcarbamoyl)phenyl-carbamoyl-6-azaandrost-4-en-3-one]	< 0.01 µM	< 0.01 µM
C[C@]12CC[C@H]3[C@@H](CNC4=CC(=O)CC[C@@]43C)[C@@H]1CC[C@@H]2C(=O)NC1(c2ccc(C(F)(F)F)cc2)CCCC1 [Compound 106, 17β-N-1-(4-Trifluoromethylphenyl)cyclopentyl-carbamoyl-6-azaandrost-4-en-3-one]	< 0.01 µM	< 0.01 µM
C[C@]12CC[C@H]3[C@@H](CNC4=CC(=O)CC[C@@]43C)[C@@H]1CC[C@@H]2C(=O)Nc1cccc(C#N)c1 [Compound 107, 17β-N-(3-Cyano)phenyl-carbamoyl-6-azaandrost-4-en-3-one]	> 0.1 µM	< 0.01 µM
CC(C)(C)c1ccc(NC(=O)[C@H]2CC[C@H]3[C@@H]4CNC5=CC(=O)CC[C@]5(C)[C@H]4CC[C@]23C)cc1 [Compound 108, 17β-N-(4-t-Butyl)phenyl-carbamoyl-6-azaandrost-4-en-3-one]	0.01 to 0.1 µM	< 0.01 µM
C[C@]12CC[C@H]3[C@@H](CNC4=CC(=O)CC[C@@]43C)[C@@H]1CC[C@@H]2C(=O)NC1(c2ccc(F)cc2)CCCCC1 [Compound 109, 17β-N-1-(4-Fluorophenyl)cyclohexyl-carbamoyl-6-azaandrost-4-en-3-one]	< 0.01 µM	< 0.01 µM
CC1(C)Cc2ccccc2C1NC(=O)[C@H]1CC[C@H]2[C@@H]3CNC4=CC(=O)CC[C@]4(C)[C@H]3CC[C@]12C (stereo partly drawn) [Compound 110, 17β-N-1-(2,2-Dimethyl)indanyl-carbamoyl-6-azaandrost-4-en-3-one]	0.01 to 0.1 µM	< 0.01 µM
COc1ccc(C2(NC(=O)[C@H]3CC[C@H]4[C@@H]5CNC6=CC(=O)CC[C@]6(C)[C@H]5CC[C@]34C)CCCCC2)cc1 [Compound 111, 17β-N-1-(4-Methoxyphenyl)cyclohexyl-carbamoyl-6-azaandrost-4-en-3-one]	< 0.01 µM	< 0.01 µM
